US9968536B2, “Composition comprising isosorbide monoesters and isosorbide diesters” (Clariant International Ltd., priority 2011, dated 2018)

Test: Determination of the thickener performance in mixture A
Format: physicochemical
Conditions: for Viscosity: 1% by weight added to mixture A (15% by weight in water, sodium laureth-2 sulfate:cocobetain 8:2), mixture A alone 135; for thickener performance (in words): 1% by weight in mixture A, summary of Table 1
Excerpt: Using Genapol® LRO (sodium laureth-2 sulfate, 27% by weight in water) and Genagen® KB (cocobetain, 30% by weight in water) and additionally water, a 15% by weight mixture in water comprising the two surfactants in a weight ratio of 8:2 (hereinbelow referred to as “mixture A”) is obtained.

Row | Compound | Viscosity | thickener performance (in words)
1 | O[C@@H]1CO[C@H]2[C@@H]1OC[C@@H]2O [isosorbide] | 160 mPa · s | not worth mentioning
2 | isosorbide dicaprylate | 2390 mPa · s | significant thickening
